Results taken from patent US20230243825A1, “ADAPTIVE NANOPARTICLE PLATFORMS FOR HIGH THROUGHPUT EXPANSION AND DETECTION OF ANTIGEN-SPECIFIC T CELLS” (The Johns Hopkins University, priority 2020, published 2023).

How the values were obtained:
[1] = system: SIY and VDW-specific CD8+ T cells; assay: In vivo peptide vaccination with poly I:C, dimer staining; parameters: species or system mouse; conditions: Day 0 and Day 7, harvest Day 15
Description: On Day 15, mouse spleens and lymph nodes were harvested for dimer and particle staining, following similar protocols described above.

B16-OVA tumor cells = assay: IFN-γ pre-incubation of tumor cells; type: cell-based; conditions: overnight pre-incubation
Procedure: Whether this same approach can be expanded to other tumor models was then examined by applying it to B16-OVA. Initial results were inconclusive, so an attempt to increase the amount of recoverable peptide was made by pre-incubating tumor cells overnight with IFN-γ to upregulate MHC I on their surface. […] The calculated yield was approximately […] of peptide per 1×10^4 tumor cells, still roughly 0.00002% (w/w) of the eluted 100 micrograms of peptide.

SIYRYYGL
peptide-specific CD8+ T cells, dimer staining pre- vs post-vaccination [1]: significant increases

IFNγ
MHC I expression on tumor cells (B16-OVA tumor cells): drastically increased

VDWENVSPEL
peptide-specific CD8+ T cells, dimer staining pre- vs post-vaccination [1]: significant increases
